In patent US9486506B2 (Novo Nordisk A/S, priority 2011, dated 2016):
Numbered stars: 1 amine (or outer) side, 2 acyl side, 3 side chain; on linkers, the order of the positions; unused ones are H or OH. Side chains are listed from the residue outwards. Peptide text beside a SMILES is read from it. * marks the point of attachment. C16 diacid = O=C(O)CCCCCCCCCCCCCCC(=O)*; γGlu = O=C(O)[C@H](CCC(=O)[*:2])N[*:1]

How the values were obtained:
[1] = Assay (X) Chemical stability assessment by RP-UPLC; type: physicochemical; conditions: pH 8.15, 14 days at 37° C. vs 5° C., 333 μM
glucagon receptor = target: T1, glucagon receptor (Homo sapiens, UniProt P47871); assay: Assay (I) Glucagon activity (cAMP biosensor, FLIPR); type: cell-based
T1 construct: expressed in transfected cells
T1 sequence (P47871 26-477): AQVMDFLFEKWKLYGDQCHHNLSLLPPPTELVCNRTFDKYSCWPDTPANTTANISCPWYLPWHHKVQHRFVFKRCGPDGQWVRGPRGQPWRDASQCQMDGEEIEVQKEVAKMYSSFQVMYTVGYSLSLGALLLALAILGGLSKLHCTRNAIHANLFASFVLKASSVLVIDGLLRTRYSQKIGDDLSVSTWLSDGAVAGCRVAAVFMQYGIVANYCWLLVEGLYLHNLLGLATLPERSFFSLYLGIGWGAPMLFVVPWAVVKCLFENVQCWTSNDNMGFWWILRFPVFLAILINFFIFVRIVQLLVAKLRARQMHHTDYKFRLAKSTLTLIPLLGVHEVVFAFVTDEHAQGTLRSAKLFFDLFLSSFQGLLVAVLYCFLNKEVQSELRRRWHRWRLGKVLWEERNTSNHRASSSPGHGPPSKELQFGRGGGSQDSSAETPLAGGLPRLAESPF

Row | SMILES | Chemical stability [Purity loss/14 days 37 C.] [1] [%] | EC50 (glucagon receptor) [nM]
1 | CC(C)C[C@H](NC(=O)[C@H](Cc1ccc(O)cc1)NC(=O)[C@H](CCCNC(=N)N)NC(=O)[C@H](CO)NC(=O)[C@H](Cc1ccc(O)cc1)NC(=O)[C@H](CC(=O)O)NC(=O)[C@H](CO)NC(=O)[C@@H](NC(=O)[C@H](Cc1ccccc1)NC(=O)[C@@H](NC(=O)CNC(=O)[C@H](CCC(N)=O)NC(=O)[C@H](CO)NC(=O)[C@@H](N)Cc1c[nH]cn1)[C@@H](C)O)[C@@H](C)O)C(=O)N[C@@H](CC(=O)O)C(=O)N[C@@H](C)C(=O)N[C@@H](CCCNC(=N)N)C(=O)N[C@@H](CCCNC(=N)N)C(=O)N[C@@H](C)C(=O)N[C@@H](CCC(N)=O)C(=O)N[C@@H](CC(=O)O)C(=O)N[C@@H](Cc1ccccc1)C(=O)N[C@H](C(=O)N[C@@H](CCCCNC(=O)CC[C@H](NC(=O)CC[C@H](NC(=O)CC[C@H](NC(=O)CCCCCCCCCCCCCCC(=O)O)C(=O)O)C(=O)O)C(=O)O)C(=O)N[C@@H](Cc1c[nH]c2ccccc12)C(=O)N[C@@H](CC(C)C)C(=O)N[C@@H](CC(C)C)C(=O)N[C@@H](CO)C(=O)N[C@H](C(=O)O)[C@@H](C)O)C(C)C [Example 72, N^ε24-[(4S)-4-carboxy-4-[[(4S)-4-carboxy-4-[[(4S)-4-carboxy-4-(15-carboxypentadecanoylamino)butanoyl]amino]butanoyl]amino]butanoyl]-[Arg12,Ala16,Lys24,Leu27,Ser28]-Glucagon] (H-HSQGTFTSDYSRYLDARRAQDFVK([γGlu-γGlu-γGlu-C16 diacid])WLLST-OH) | 6.1 | 0.016
2 | CC[C@H](C)[C@H](NC(=O)[C@H](CC(=O)O)NC(=O)[C@H](CC(C)C)NC(=O)[C@H](Cc1ccc(O)cc1)NC(=O)[C@H](CCCCN)NC(=O)[C@H](CO)NC(=O)[C@H](Cc1ccc(O)cc1)NC(=O)[C@H](CC(=O)O)NC(=O)[C@H](CO)NC(=O)[C@@H](NC(=O)[C@H](Cc1ccccc1)NC(=O)[C@@H](NC(=O)CNC(=O)[C@H](CCC(N)=O)NC(=O)[C@H](CO)NC(=O)[C@@H](N)Cc1c[nH]cn1)[C@@H](C)O)[C@@H](C)O)C(=O)N[C@@H](CCCNC(=N)N)C(=O)N[C@@H](CCCNC(=N)N)C(=O)N[C@@H](C)C(=O)N[C@@H](CCC(N)=O)C(=O)N[C@@H](CC(=O)O)C(=O)N[C@@H](Cc1ccccc1)C(=O)N[C@H](C(=O)N[C@@H](CCCCNC(=O)CC[C@H](NC(=O)CC[C@H](NC(=O)CC[C@H](NC(=O)CC[C@H](NC(=O)CCCCCCCCCCCCCCCCC(=O)O)C(=O)O)C(=O)O)C(=O)O)C(=O)O)C(=O)N[C@@H](Cc1c[nH]c2ccccc12)C(=O)N[C@@H](CC(C)C)C(=O)N[C@@H](CC(C)C)C(=O)N[C@@H](CO)C(=O)N[C@H](C(N)=O)[C@@H](C)O)C(C)C [Example 75, N^ε24-[(4S)-4-carboxy-4-[[(4S)-4-carboxy-4-[[(4S)-4-carboxy-4-[[(4S)-4-carboxy-4-(17-carboxyheptadecanoylamino)butanoyl]amino]butanoyl]amino]butanoyl]amino]butanoyl]-[Ile16,Lys24,Leu27,Ser28]-Glucagon amide] | 3.6 | 0.402
3 | CC(C)C[C@H](NC(=O)[C@H](Cc1c[nH]c2ccccc12)NC(=O)[C@H](CCCCNC(=O)CC[C@H](NC(=O)CC[C@H](NC(=O)CC[C@H](NC(=O)CC[C@H](NC(=O)CCCCCCCCCCCCCCCCC(=O)O)C(=O)O)C(=O)O)C(=O)O)C(=O)O)NC(=O)[C@@H](NC(=O)[C@H](Cc1ccccc1)NC(=O)[C@H](CC(=O)O)NC(=O)[C@H](CCC(N)=O)NC(=O)[C@H](C)NC(=O)[C@H](CCCNC(=N)N)NC(=O)[C@H](CCCNC(=N)N)NC(=O)[C@@H](NC(=O)[C@H](CC(=O)O)NC(=O)[C@H](CC(C)C)NC(=O)[C@H](Cc1ccc(O)cc1)NC(=O)[C@H](CCCCN)NC(=O)[C@H](CO)NC(=O)[C@H](Cc1ccc(O)cc1)NC(=O)[C@H](CC(=O)O)NC(=O)[C@H](CO)NC(=O)[C@@H](NC(=O)[C@H](Cc1ccccc1)NC(=O)[C@@H](NC(=O)CNC(=O)[C@H](CCC(N)=O)NC(=O)[C@H](CO)NC(=O)[C@@H](N)Cc1c[nH]cn1)[C@@H](C)O)[C@@H](C)O)C(C)C)C(C)C)C(=O)N[C@@H](CC(C)C)C(=O)N[C@@H](CO)C(=O)N[C@H](C(N)=O)[C@@H](C)O [Example 76, N^ε24-[(4S)-4-carboxy-4-[[(4S)-4-carboxy-4-[[(4S)-4-carboxy-4-[[(4S)-4-carboxy-4-(17-carboxyheptadecanoylamino)butanoyl]amino]butanoyl]amino]butanoyl]amino]butanoyl]-[Val16,Lys24,Leu27,Ser28]-Glucagon amide] | 5.5 | 0.268
4 | CC(C)C[C@H](NC(=O)[C@H](CC(=O)O)NC(=O)[C@H](CC(C)C)NC(=O)[C@H](Cc1ccc(O)cc1)NC(=O)[C@H](CCCCN)NC(=O)[C@H](CO)NC(=O)[C@H](Cc1ccc(O)cc1)NC(=O)[C@H](CC(=O)O)NC(=O)[C@H](CO)NC(=O)[C@@H](NC(=O)[C@H](Cc1ccccc1)NC(=O)[C@@H](NC(=O)CNC(=O)[C@H](CCC(N)=O)NC(=O)[C@H](CO)NC(=O)[C@@H](N)Cc1c[nH]cn1)[C@@H](C)O)[C@@H](C)O)C(=O)N[C@@H](CCCNC(=N)N)C(=O)N[C@@H](CCCNC(=N)N)C(=O)N[C@@H](C)C(=O)N[C@@H](CCC(N)=O)C(=O)N[C@@H](CC(=O)O)C(=O)N[C@@H](Cc1ccccc1)C(=O)N[C@H](C(=O)N[C@@H](CCCCNC(=O)CC[C@H](NC(=O)CC[C@H](NC(=O)CC[C@H](NC(=O)CC[C@H](NC(=O)CCCCCCCCCCCCCCCCC(=O)O)C(=O)O)C(=O)O)C(=O)O)C(=O)O)C(=O)N[C@@H](Cc1c[nH]c2ccccc12)C(=O)N[C@@H](CC(C)C)C(=O)N[C@@H](CC(C)C)C(=O)N[C@@H](CO)C(=O)N[C@H](C(N)=O)[C@@H](C)O)C(C)C [Example 77, N^ε24-[(4S)-4-carboxy-4-[[(4S)-4-carboxy-4-[[(4S)-4-carboxy-4-[[(4S)-4-carboxy-4-(17-carboxyheptadecanoylamino)butanoyl]amino]butanoyl]amino]butanoyl]amino]butanoyl]-[Leu16,Lys24,Leu27,Ser28]-Glucagon amide] | 4.1 | 0.812
5 | CC(C)C[C@H](NC(=O)[C@H](Cc1c[nH]c2ccccc12)NC(=O)[C@H](CCCCNC(=O)CC[C@H](NC(=O)CC[C@H](NC(=O)CC[C@H](NC(=O)CC[C@H](NC(=O)CCCCCCCCCCCCCCCCC(=O)O)C(=O)O)C(=O)O)C(=O)O)C(=O)O)NC(=O)[C@@H](NC(=O)[C@H](Cc1ccccc1)NC(=O)[C@H](CC(=O)O)NC(=O)[C@H](CCC(N)=O)NC(=O)[C@H](C)NC(=O)[C@H](CCCNC(=N)N)NC(=O)[C@H](CCCNC(=N)N)NC(=O)[C@@H](NC(=O)[C@H](CC(=O)O)NC(=O)[C@H](CC(C)C)NC(=O)[C@H](Cc1ccc(O)cc1)NC(=O)[C@H](CCCCN)NC(=O)[C@H](CO)NC(=O)[C@H](Cc1ccc(O)cc1)NC(=O)[C@H](CC(=O)O)NC(=O)[C@H](CO)NC(=O)[C@@H](NC(=O)[C@H](Cc1ccccc1)NC(=O)[C@@H](NC(=O)CNC(=O)[C@H](CCC(N)=O)NC(=O)[C@H](CO)NC(=O)[C@@H](N)Cc1c[nH]cn1)[C@@H](C)O)[C@@H](C)O)C(C)C)C(C)C)C(=O)N[C@@H](CC(C)C)C(=O)N[C@@H](CO)C(=O)N[C@H](C(=O)O)[C@@H](C)O [Example 78, N^ε24-[(4S)-4-carboxy-4-[[(4S)-4-carboxy-4-[[(4S)-4-carboxy-4-[[(4S)-4-carboxy-4-(17-carboxyheptadecanoylamino)butanoyl]amino]butanoyl]amino]butanoyl]amino]butanoyl]-[Val16,Lys24,Leu27,Ser28]-Glucagon] | 4.3 | 0.134
6 | CC[C@H](C)[C@H](NC(=O)[C@H](CC(=O)O)NC(=O)[C@H](CC(C)C)NC(=O)[C@H](Cc1ccc(O)cc1)NC(=O)[C@H](CCCCN)NC(=O)[C@H](CO)NC(=O)[C@H](Cc1ccc(O)cc1)NC(=O)[C@H](CC(=O)O)NC(=O)[C@H](CO)NC(=O)[C@@H](NC(=O)[C@H](Cc1ccccc1)NC(=O)[C@@H](NC(=O)CNC(=O)[C@H](CCC(N)=O)NC(=O)[C@H](CO)NC(=O)[C@@H](N)Cc1c[nH]cn1)[C@@H](C)O)[C@@H](C)O)C(=O)N[C@@H](CCCNC(=N)N)C(=O)N[C@@H](CCCNC(=N)N)C(=O)N[C@@H](C)C(=O)N[C@@H](CCC(N)=O)C(=O)N[C@@H](CC(=O)O)C(=O)N[C@@H](Cc1ccccc1)C(=O)N[C@H](C(=O)N[C@@H](CCCCNC(=O)CC[C@H](NC(=O)CC[C@H](NC(=O)CC[C@H](NC(=O)CC[C@H](NC(=O)CCCCCCCCCCCCCCCCC(=O)O)C(=O)O)C(=O)O)C(=O)O)C(=O)O)C(=O)N[C@@H](Cc1c[nH]c2ccccc12)C(=O)N[C@@H](CC(C)C)C(=O)N[C@@H](CC(C)C)C(=O)N[C@@H](CO)C(=O)N[C@H](C(=O)O)[C@@H](C)O)C(C)C [Example 79, N^ε24-[(4S)-4-carboxy-4-[[(4S)-4-carboxy-4-[[(4S)-4-carboxy-4-[[(4S)-4-carboxy-4-(17-carboxyheptadecanoylamino)butanoyl]amino]butanoyl]amino]butanoyl]amino]butanoyl]-[Ile16,Lys24,Leu27,Ser28]-Glucagon] | 3.8 | 0.189
